Source: US10544112B2, “Identification of ebsulfur analogues with broad-spectrum antifungal activity” (priority 2017, dated 2020)
Like-named read-outs stand apart in the source and are kept apart here.

What was measured:
[1] = test system: C. albicans ATCC 64124 (strain B); assay type: cell-based, Candida albicans
Description: The efficiency of the compounds to kill C. albicans ATCC 64124 (strain B) was monitored using a previously published protocol. The cell suspensions were prepared to achieve an inoculum of approximately 1-4×10^5 CFU/mL in RPMI 1640 medium at 35° C. […] After fungal cell addition, at 0, 3, 6, 9, 12, and 24 h, the tubes were vortexed and 100 μL aliquots were removed from each solution, spread onto PDA plates, and incubated at 35° C. Colony counts were determined after 24 h of incubation. The experiments were performed in duplicate (FIG. 2).
Time-kill assays with ebsulfur (2a) and analogue 3a (FIG. 2) were performed to determine the rate of fungicidal activity of the compounds if the invention.

[2] = test system: C. albicans ATCC 10231 (strain A); test: ROS production assay (DCFH-DA); assay type: cell-based, Candida albicans; conditions: 1× and 2× MIC (H2O2 1 mM), 1-h treatment
Description: ROS production assay was performed as previously described with minor modifications. […] Once entering the cells, the DCFH-DA probe is first hydrolyzed to the non-fluorescent 2′,7′-dichlorodihydrofluorescein (DCFH) by cellular esterases. […] A colony of C. albicans ATCC 10231 (strain A) was used to inoculate 5 mL of PDB in a Falcon tube and grown overnight at 35° C. at 200 rpm.
Thus, whether the compounds of the invention would also induce ROS against C. albicans was studied. […] 2′,7′-dichlorodihydrofluorescin diacetate (DCFH-DA) was then used to detect and visualize ROS production (FIG. 5). As a positive control, cells were treated with H2O2, which is an inducer of hydroxyl radical formation.

[3] = test system: Murine red blood cells (mRBCs); test: Hemolytic assay
Description: Hemolytic activity was determined as previously described with minor modifications (FIG. 3). […] Compounds were serially diluted in Eppendorf tubes containing H2O (100 μL). […] The tubes were then incubated for 1 h at 37° C. Tubes containing dd H2O (200 μL) and triton X-100® (1% v/v, 2 μt) served as negative (blank) and positive (100%) control, respectively. The percent hemolysis was calculated using the following equation: % hemolysis=[(absorbance of sample)−(absorbance of blank)]×100/(absorbance of positive control). Fifty percent hemolysis (HC50) values were defined as the concentrations of compounds required to lyse 50% of the mRBCs.

## CCCCCn1sc2ccccc2c1=O [Compound 3a]
[1]
  fungicidal or fungistatic effect: fungistatic
  reduction of fungal cells: 4 log
[1]; 1× MIC
  fungicidal or fungistatic effect: fungistatic
[1]; 2× MIC
  fungicidal or fungistatic effect: fungistatic
[2]
  ROS induction (DCFH-DA fluorescence): highly fluorescent
[3]; Aspergillus strains
  fold MIC lower than the hemolytic concentration: ≥ 195 fold
[3]; Candida strains
  fold MIC lower than the hemolytic concentration: at least 5 fold
[3]; mRBCs, 1 h at 37° C.
  hemolytic concentration: approximately 3.9 μg/mL
